Experimental data: publication PMC6032158, “Structure–Activity Relationship of Piplartine and Synthetic Analogues against Schistosoma mansoni and Cytotoxicity to Mammalian Cells” (International Journal of Molecular Sciences, 2018)

Assays:
[1] = test system: mouse BALB/cN macrophage (J774A.1) cell line; assay: Cell viability by flow cytometry in macrophages; conditions: 24 h, 25, 100 and 400 µg/mL, vs DMEM control
[2] = test system: 49-day-old S. mansoni adult worms; assay: In vitro experiments with adult worms of S. mansoni (mortality, motor activity); type: cell-based, Schistosoma mansoni; conditions: for Dead Worms (%) F / Motor Activity Reduction (%) Significant F / Motor Activity Reduction (%) Slight F: female worms; for Dead Worms (%) M / Motor Activity Reduction (%) Significant M / Motor Activity Reduction (%) Slight M: male worms
Protocol: The Belo Horizonte (BH) strain of S. mansoni was maintained in Biomphalaria glabrata snails and Mesocricetus auratus hamsters at the Adolfo Lutz Institute (São Paulo, Brazil) according to standard procedures. Detailed methods for the infection of molluscs and hamsters, as well as for the recovery of parasites, were as described previously. Briefly, the intermediate host snails were exposed to light for approximately 3 h and cercariae of S. mansoni were subsequently harvested. […] All animals were handled in strict accordance with good animal practice as defined by the Animal Use Ethics Committee. The preparations and culture of schistosomes was performed as previously described. Briefly, hamsters were killed 49 days after infection for the recovery of adult schistosomes. Next, fresh adult worm pairs (male and female) were washed and placed in a 24-well culture plate (TPP, St. […] Adult schistosomes were maintained continuously in medium (with or without drugs) for 96 h as described below. In vitro assays in S. mansoni adults were performed with mated males and females. The worm pairs obtained from the infusion hamsters were washed twice with RPMI 1640 medium containing 200 U/mL penicillin, 200 μg/mL streptomycin and 2 μg/mL amphotericin B (Vitrocell, Campinas, Brazil). The mated parasites were then transferred into 24-well cell culture plates (TPP, St. […] Cultures of adult worms were monitored by microscopy or magnifying glass. The effect of the drug was assessed with emphasis on changes in worm motor activity and death of worms as previously described.

[3] = test system: murine fibroblast (NIH-3T3) cells; assay: MTT cytotoxicity assay in murine fibroblasts; type: cell-based
Protocol: Next, the medium was removed and various concentrations (25–800 µg/mL) of samples reconstituted in 3% DMSO were applied. DMSO (3%) was used as a control. The plates were incubated for 24 h. Next, 15 µL of MTT solution (5 mg/mL in phosphate buffer) was added to each well and the plates were incubated for 2 h. Medium was discarded and 100 µL of DMSO was added to each well. Absorbance was determined using a spectrophotometer with a microplate reader at 595 nm (Molecular Devices Corporation, Sunnyvale, CA, USA).

O=C(/C=C/c1ccc([N+](=O)[O-])cc1)N(C(=O)NC1CCCCC1)C1CCCCC1 [Compound 6B]
effect on J774A.1 cell viability (in words) [1]: did not reduce cell viability at the same concentrations
Dead Worms (%) F ([2]; 5 µM, 14 h): 0%
Motor Activity Reduction (%) Significant F ([2]; 5 µM, 14 h): 0%
Motor Activity Reduction (%) Slight F ([2]; 5 µM, 14 h): 0%
Dead Worms (%) M ([2]; 5 µM, 14 h): 0%
Motor Activity Reduction (%) Significant M ([2]; 5 µM, 14 h): 0%
Motor Activity Reduction (%) Slight M ([2]; 5 µM, 14 h): 0%
Dead Worms (%) F ([2]; 5 µM, 48 h): 0%
Motor Activity Reduction (%) Significant F ([2]; 5 µM, 48 h): 0%
Motor Activity Reduction (%) Slight F ([2]; 5 µM, 48 h): 0%
Dead Worms (%) M ([2]; 5 µM, 48 h): 0%
Motor Activity Reduction (%) Significant M ([2]; 5 µM, 48 h): 0%
Motor Activity Reduction (%) Slight M ([2]; 5 µM, 48 h): 0%
Dead Worms (%) F ([2]; 5 µM, 72 h): 0%
Motor Activity Reduction (%) Significant F ([2]; 5 µM, 72 h): 0%
Motor Activity Reduction (%) Slight F ([2]; 5 µM, 72 h): 0%
Dead Worms (%) M ([2]; 5 µM, 72 h): 0%
Motor Activity Reduction (%) Significant M ([2]; 5 µM, 72 h): 0%
Motor Activity Reduction (%) Slight M ([2]; 5 µM, 72 h): 0%
Dead Worms (%) F ([2]; 5 µM, 96 h): 0%
Motor Activity Reduction (%) Significant F ([2]; 5 µM, 96 h): 0%
Motor Activity Reduction (%) Slight F ([2]; 5 µM, 96 h): 0%
Dead Worms (%) M ([2]; 5 µM, 96 h): 0%
Motor Activity Reduction (%) Significant M ([2]; 5 µM, 96 h): 0%
Motor Activity Reduction (%) Slight M ([2]; 5 µM, 96 h): 0%
Dead Worms (%) F ([2]; 10 µM, 24 h): 0%
Motor Activity Reduction (%) Significant F ([2]; 10 µM, 24 h): 0%
Motor Activity Reduction (%) Slight F ([2]; 10 µM, 24 h): 0%
Dead Worms (%) M ([2]; 10 µM, 24 h): 0%
Motor Activity Reduction (%) Significant M ([2]; 10 µM, 24 h): 0%
Motor Activity Reduction (%) Slight M ([2]; 10 µM, 24 h): 0%
Dead Worms (%) F ([2]; 10 µM, 48 h): 0%
Motor Activity Reduction (%) Significant F ([2]; 10 µM, 48 h): 0%
Motor Activity Reduction (%) Slight F ([2]; 10 µM, 48 h): 0%
Dead Worms (%) M ([2]; 10 µM, 48 h): 0%
Motor Activity Reduction (%) Significant M ([2]; 10 µM, 48 h): 0%
Motor Activity Reduction (%) Slight M ([2]; 10 µM, 48 h): 0%
Dead Worms (%) F ([2]; 10 µM, 72 h): 0%
Motor Activity Reduction (%) Significant F ([2]; 10 µM, 72 h): 0%
Motor Activity Reduction (%) Slight F ([2]; 10 µM, 72 h): 0%
Dead Worms (%) M ([2]; 10 µM, 72 h): 0%
Motor Activity Reduction (%) Significant M ([2]; 10 µM, 72 h): 0%
Motor Activity Reduction (%) Slight M ([2]; 10 µM, 72 h): 0%
Dead Worms (%) F ([2]; 10 µM, 96 h): 0%
Motor Activity Reduction (%) Significant F ([2]; 10 µM, 96 h): 0%
Motor Activity Reduction (%) Slight F ([2]; 10 µM, 96 h): 0%
Dead Worms (%) M ([2]; 10 µM, 96 h): 0%
Motor Activity Reduction (%) Significant M ([2]; 10 µM, 96 h): 0%
Motor Activity Reduction (%) Slight M ([2]; 10 µM, 96 h): 0%
Dead Worms (%) F ([2]; 25 µM, 24 h): 0%
Motor Activity Reduction (%) Significant F ([2]; 25 µM, 24 h): 0%
Motor Activity Reduction (%) Slight F ([2]; 25 µM, 24 h): 0%
Dead Worms (%) M ([2]; 25 µM, 24 h): 0%
Motor Activity Reduction (%) Significant M ([2]; 25 µM, 24 h): 0%
Motor Activity Reduction (%) Slight M ([2]; 25 µM, 24 h): 0%
Dead Worms (%) F ([2]; 25 µM, 48 h): 0%
Motor Activity Reduction (%) Significant F ([2]; 25 µM, 48 h): 0%
Motor Activity Reduction (%) Slight F ([2]; 25 µM, 48 h): 0%
Dead Worms (%) M ([2]; 25 µM, 48 h): 0%
Motor Activity Reduction (%) Significant M ([2]; 25 µM, 48 h): 0%
Motor Activity Reduction (%) Slight M ([2]; 25 µM, 48 h): 0%
Dead Worms (%) F ([2]; 25 µM, 72 h): 0%
Motor Activity Reduction (%) Significant F ([2]; 25 µM, 72 h): 0%
Motor Activity Reduction (%) Slight F ([2]; 25 µM, 72 h): 0%
Dead Worms (%) M ([2]; 25 µM, 72 h): 0%
Motor Activity Reduction (%) Significant M ([2]; 25 µM, 72 h): 0%
Motor Activity Reduction (%) Slight M ([2]; 25 µM, 72 h): 0%
Dead Worms (%) F ([2]; 25 µM, 96 h): 0%
Motor Activity Reduction (%) Significant F ([2]; 25 µM, 96 h): 0%
Motor Activity Reduction (%) Slight F ([2]; 25 µM, 96 h): 0%
Dead Worms (%) M ([2]; 25 µM, 96 h): 0%
Motor Activity Reduction (%) Significant M ([2]; 25 µM, 96 h): 0%
Motor Activity Reduction (%) Slight M ([2]; 25 µM, 96 h): 0%
Dead Worms (%) F ([2]; 50 µM, 24 h): 0%
Motor Activity Reduction (%) Significant F ([2]; 50 µM, 24 h): 0%
Motor Activity Reduction (%) Slight F ([2]; 50 µM, 24 h): 0%
Dead Worms (%) M ([2]; 50 µM, 24 h): 0%
Motor Activity Reduction (%) Significant M ([2]; 50 µM, 24 h): 0%
Motor Activity Reduction (%) Slight M ([2]; 50 µM, 24 h): 0%
Dead Worms (%) F ([2]; 50 µM, 48 h): 0%
Motor Activity Reduction (%) Significant F ([2]; 50 µM, 48 h): 0%
Motor Activity Reduction (%) Slight F ([2]; 50 µM, 48 h): 0%
Dead Worms (%) M ([2]; 50 µM, 48 h): 0%
Motor Activity Reduction (%) Significant M ([2]; 50 µM, 48 h): 0%
Motor Activity Reduction (%) Slight M ([2]; 50 µM, 48 h): 0%
Dead Worms (%) F ([2]; 50 µM, 72 h): 0%
Motor Activity Reduction (%) Significant F ([2]; 50 µM, 72 h): 0%
Motor Activity Reduction (%) Slight F ([2]; 50 µM, 72 h): 0%
Dead Worms (%) M ([2]; 50 µM, 72 h): 0%
Motor Activity Reduction (%) Significant M ([2]; 50 µM, 72 h): 0%
Motor Activity Reduction (%) Slight M ([2]; 50 µM, 72 h): 0%
Dead Worms (%) F ([2]; 50 µM, 96 h): 0%
Motor Activity Reduction (%) Significant F ([2]; 50 µM, 96 h): 0%
Motor Activity Reduction (%) Slight F ([2]; 50 µM, 96 h): 0%
Dead Worms (%) M ([2]; 50 µM, 96 h): 0%
Motor Activity Reduction (%) Significant M ([2]; 50 µM, 96 h): 0%
Motor Activity Reduction (%) Slight M ([2]; 50 µM, 96 h): 0%
activity against S. mansoni adult worms (in words) ([2]; analogues 50, 25, 10 and 5 μM, piplartine 5 and 10 μM, up to 96 h): did not present biological activity against the S. mansoni parasite
effect on NIH-3T3 cell viability (in words) ([3]; MTT, 24 h exposure, 25 to 800 µg/mL): did not exert significant effects on mammalian cell viability at the tested concentrations
Emax at 800 µg/mL ([3]; Mus musculus, NIH3T3, 24 h, decrease in cell viability at the maximum concentration tested (800 μg/mL), NIH-3T3, 24 h): < 50%
